The values that follow come from PubChem BioAssay (NCI).

Molecules are shown by their SMILES.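 Dose response: 5 concentrations. Exposure: 48 h. Format: 96-well plates. Endpoint: linear interpolation; highest concentration if not reached. GI50 marks 50% less growth. TGI is the concentration that stops growth completely.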

Experiment in all cases: DTP human tumour cell line panel, 48 h
The test system of assay [1] is ACHN renal.
In assay [2] the test system is HCT-116 colon.
For assay [3], the system named is HOP-62 NSCLC.
Assay [4] relates to KM12 colon.
For assay [5], the system named is M14 melanoma.
Assay [6] concerns NCI-H23 lung.
Assay [7] deals with OVCAR-3 ovarian.
Assay [8] has as its system OVCAR-4 ovarian.
The subject of assay [9] is SW-620 colon.
The test system of assay [10] is HCC-2998 colon.

Take `Cc1ccc(SCC(O)=C2C(=O)CCCC2=O)cc1`: the TGI in [1], in assay [2], in [3], in [4], in [5] and in assay [6] was > 100 µM each time. The TGI in assay [7], in assay [8] and in [9] was > 100 µM throughout.

Regarding `Cc1cc(Cl)ccc1NC(=O)CCCC(=O)C(C(=O)c1ccccc1)c1ccccc1` (stereo not given), the TGI in [1], in assay [10], in assay [3], in assay [4], in assay [5] and in assay [6] was > 100 µM in each case. Besides, the TGI in [7] and in assay [8] was > 100 µM each time.

As for `O=C(Nc1ccccc1C(=O)Nc1nccs1)c1ccccc1`, the TGI in assay [1], in [10], in assay [2], in assay [3], in assay [4] and in assay [5] was > 100 µM each time. For the same molecule, the TGI (commonly the concentration at which net growth stops) was > 100 µM in assay [6], 36.6 µM in assay [7] and > 100 µM in [9].

`O=C(O)Cc1cc(=O)[nH]c2c1C(=O)CCC2`: the TGI in [1], in assay [10], in assay [4], in assay [5], in assay [6] and in assay [7] was > 100 µM throughout. For the same molecule, in assay [9], the TGI was > 100 µM.

As for `COc1cc(CC2CC(c3ccc4c(c3)OCO4)OC2=O)cc(OC)c1OC` (stereo not given), the TGI in assay [1], in assay [10], in assay [2], in [3], in assay [4] and in assay [5] was > 100 µM each time. Further, the TGI in assay [6], in assay [7] and in [9] was > 100 µM each time.

For the molecule `COc1cc(C(=O)C/C(CCC(=O)Nc2ccc(Cl)cc2Cl)=N/Nc2nnc(C)n2N)ccc1O`, the TGI in assay [1], in assay [10], in assay [2], in assay [3], in assay [4] and in assay [5] was > 100 µM throughout. Further, the TGI in [6], in assay [7] and in assay [9] was > 100 µM throughout.

For the molecule `O=c1cccccc1NCCNc1cccccc1=O`, the TGI in assay [1], in [2], in assay [3], in [4], in [5] and in [6] was > 100 µM in each case. Further, the TGI in assay [7], in assay [8] and in assay [9] was > 100 µM in each case.

Regarding `CC(C)N(Cc1ccccc1)S(=O)(=O)c1n[nH]c(C(C)(C)C)n1`, the TGI in [1], in assay [2], in assay [3], in assay [4], in assay [5] and in assay [6] was > 100 µM throughout. Moreover, the TGI in assay [7], in assay [8] and in assay [9] was > 100 µM each time.

`O=C1NC(O)CCN1C1CC(O)C(CO)O1` (stereo not given): the TGI in assay [1], in assay [10], in assay [2], in assay [3], in assay [4] and in [5] was > 100 µM each time. In addition, the TGI in assay [6], in assay [7] and in assay [9] was > 100 µM each time.

On to `CC(=O)NS(=O)(=O)c1ccc(-n2nc(-c3ccccc3)cc2C2=CC(=O)C=CC2=O)cc1`, for which the GI50 (in general, the concentration at which growth is held to half of that of the control) was > 100 µM in [1]; 33.5 µM in [2]; > 100 µM in [3]; > 100 µM in [4]; > 100 µM in [5]; > 100 µM in assay [6]. For the same molecule, the GI50 in assay [7] was > 100 µM; in assay [9], 36.6 µM. In addition, the TGI in [1], in assay [2], in [3], in assay [4], in assay [5] and in [6] was > 100 µM throughout. The concentration for total growth inhibition (TGI) in [7] and in assay [9] was > 100 µM each time.

On to `CCCCCCCCCCCCCCC(O)C1CCC(C(O)CCC(O)CCCCCC(O)CC2=CC(C)OC2=O)O1` (stereo not given), for which the TGI in assay [10] was 4.94 µM; in assay [2] it was 11.1 µM; in [3], 7.77 µM; in assay [5], 22.8 µM; in assay [6], 12.1 µM; in [7] it was 4.76 µM. For the same molecule, the values for the TGI in [8] and in assay [9] were 8.89 µM and 13.9 µM, respectively.

Regarding `COC(=O)/C(=N/O)C(C(=O)OC)C(=O)C(=O)Nc1c(Cl)cc(C)cc1S(=O)(=O)O` (stereo not given), the TGI in assay [1], in assay [10], in assay [2], in assay [3], in assay [4] and in assay [5] was > 100 µM in each case. Further, the TGI in [6], in [7] and in assay [8] was > 100 µM throughout.

As for `CC(C)(O)CCC(O)C(C)(O)C1CCC2(O)C3=CC(=O)C4(O)CC(O)C(O)CC4(C)C3CCC12C` (stereo not given) (tested in a mixture with another compound), the TGI in assay [1], in assay [2], in assay [3], in assay [4], in [5] and in assay [6] was > 100 µM in each case. In addition, the TGI in [7], in assay [8] and in assay [9] was > 100 µM in each case.

On to `C=C1C(=O)O[C@H]2[C@H]1CC/C(COC(=O)/C=C/c1c[nH]c3ccccc13)=C\CC[C@@]1(C)O[C@@H]21`, for which the GI50 in assay [1] is 0.202 µM; in assay [2], 0.185 µM; in assay [3], 0.829 µM; in [4], 0.402 µM; in assay [5], 0.221 µM; in [6] it was 1.25 µM. Further, the GI50 in [7] was 0.173 µM; in [8], 0.207 µM; in assay [9], 0.181 µM. Besides, the TGI was found to be 0.545 µM in [1]; 0.425 µM in assay [2]; 2.16 µM in [3]; 1.64 µM in assay [4]; 0.572 µM in assay [5]; 4.32 µM in assay [6]. Moreover, the total growth inhibition concentration (TGI) amounted to 0.37 µM in [7], 0.546 µM in assay [8] and 0.446 µM in assay [9].

For `O=S1(=O)CC(Br)C(Br)C1` (stereo not given), the GI50 is 2.61 µM in assay [1]; 14.9 µM in assay [10]; 2.34 µM in [2]; 12.7 µM in assay [3]; 13.4 µM in assay [4]; 5.67 µM in [5]. Moreover, the GI50 was 7.88 µM in [6], 2.77 µM in assay [7] and 3.11 µM in [8]. Further, the TGI amounted to 6.72 µM in assay [1]; 28.9 µM in [10]; 6.53 µM in [2]; 27.6 µM in assay [3]; 32.4 µM in [4]; 20.8 µM in assay [5]. The values for the TGI in assay [6], in assay [7] and in assay [8] were 26 µM, 7.82 µM and 18.4 µM, respectively.

`N=C1C(c2nc(-c3ccc(Br)cc3)cs2)=C(O)CN1CC1CCCO1` (stereo not given): the GI50 in assay [1], in assay [10], in assay [3], in assay [4] and in assay [6] was > 100 µM each time. The TGI in assay [1], in assay [10], in [3], in [4] and in [6] was > 100 µM in each case.

Consider `CCC1OC(/C(C)=C/C(C)/C=C/C2C(C)C2/C=C/C2OC(CC(=O)O)CC(O)C2O)CC=C1C` (stereo not given), for which the GI50 in assay [1], in [10], in [2], in [3], in assay [4] and in assay [5] was > 50 µM in each case. The GI50 in [6], in [8] and in assay [9] was > 50 µM in each case. Besides, the TGI in assay [1], in assay [10], in assay [2], in assay [3], in assay [4] and in [5] was > 50 µM each time. Moreover, the TGI in assay [6], in assay [8] and in assay [9] was > 50 µM in each case.

Regarding `CC1=NN(C(=O)c2cc(Cl)cc([N+](=O)[O-])c2)C(=O)C1N=Nc1ccccc1C(=O)O` (stereo not given), the TGI in assay [1], in assay [10], in [2], in assay [4], in assay [6] and in [7] was > 100 µM throughout. In addition, in assay [9], the TGI is > 100 µM.

Consider `CCC1(CC)C(=O)[N-]C(=O)[N-]C1=O.[Au+].[Au+].c1ccc([PH+](c2ccccc2)c2ccccc2)cc1.c1ccc([PH+](c2ccccc2)c2ccccc2)cc1`, for which the GI50 in [1] is 1.7 µM; in [10] it was 1.98 µM; in assay [5], 0.752 µM; in assay [7] it was 1.31 µM. In addition, the TGI in assay [1] was 3.07 µM; in assay [10] it was 3.41 µM; in assay [5], 2.05 µM; in assay [7], 2.59 µM.

As for `S=c1[nH]nc(SCc2ccccc2Cl)c2[nH]cnc12`, the TGI in [1], in [2], in assay [3], in assay [4], in assay [5] and in [6] was > 100 µM in each case. The TGI in assay [7], in [8] and in assay [9] was > 100 µM each time.

`Cc1ccc(/C=C2\CN(Cc3cn(CCNc4ccnc5cc(Cl)ccc45)nn3)C/C(=C\c3ccc(C)cc3)C2=O)cc1`: the GI50 was 1.78 µM in assay [1]; 1.92 µM in assay [10]; 1.68 µM in [2]; 1.96 µM in [3]; 1.65 µM in [4]; 2.2 µM in assay [5]. The GI50 in assay [7] was 1.8 µM; in assay [8] it was 1.66 µM. Further, the TGI in [1] turned out to be 3.25 µM; in [10] it was 3.44 µM; in [2] it was 3.27 µM; in assay [3], 3.47 µM; in [4], 3.28 µM; in assay [5] it was 4.62 µM. Moreover, the TGI in assay [7] was 3.24 µM; in [8] it was 3.57 µM.

For `O=C1C2=C(c3ccccc31)C(c1ccc(Cl)cc1)NC(=S)N2` (stereo not given), the TGI in assay [1] was > 100 µM; in assay [2], 28.3 µM; in [3], > 100 µM; in assay [4] it was 52.5 µM; in assay [5], 54.6 µM; in [6] it was 40.5 µM. The values for the TGI in assay [7], in [8] and in assay [9] were 39.6 µM, 37.8 µM and 40.5 µM, respectively.

On to `C=Cc1cnc([N+](=O)[O-])n1C`, for which the TGI in [1], in [10], in [2], in [3], in assay [4] and in assay [5] was > 100 µM throughout. For the same molecule, the TGI in [6], in assay [7] and in assay [9] was > 100 µM each time.

With `O=C(/C=C/c1ccccc1)CCc1c(O)c2ccccc2oc1=O`, the TGI in assay [1], in [10], in assay [2], in assay [4], in assay [5] and in assay [6] was > 100 µM each time. Also, the TGI in assay [7], in [8] and in [9] was > 100 µM in each case.

As for `COc1ccc(N2C(=O)C(N3C(=O)C=CC3=O)C2C=O)cc1` (stereo not given), the TGI in assay [1], in [10], in assay [2], in [3], in assay [4] and in assay [5] was > 100 µM in each case. Also, the TGI in [6], in [7] and in assay [9] was > 100 µM each time.
